# Measured values taken from patent publication US5302610A, “Renal-selective biphenylmethyl imidazole angiotensin II antagonists for treatment of hypertension” (G. D. Searle & Co., priority 1991, dated 1994).
# Experiments:
# AII receptor = assay: Assay C: In Vivo Intravenous Pressor Assay Response for AII Antagonists; set-up: species or system male Sprague-Dawley rats, ganglion-blocked
# Description: The in vivo AII receptor antagonist activity of Example #5 compound was examined in ganglion-blocked male Sprague-Dawley rats (Harlan Sprague-Dawley, Inc.), weighing 300-400 g, anesthetized with 100 mg/kg i.p. Inactin. Catheters (PE-50) were implanted in a femoral artery and vein to measure mean arterial pressure and to administer compounds, respectively. A tracheal catheter maintained airway patency. For intravenous experiments, autonomic neurotransmission was blocked by treatment with mecamylamine (3 mg/kg i.v.) and atropine (400 μg/kg i.v.). AII (30 ng/kg i.v., 20-25 μl volume) was administered four times at 10 minute intervals to establish a reproducible control pressor response. Example #5 compound was then administered at 1, 3 and 10 mg/kg in separate groups of rats as an intravenous bolus (0.2 ml volume) before rechallenging with AII (30 ng/kg, 20-25 μl volume) for the following 2 hours. For intraduodenal experiments, rats were anesthetized as above, but ganglion blockade was not performed. AII was administered at 100 ng/kg i.v. (20-25 μl volume), and was administered at 10, 30 and 100 mg/kg in separate groups of rats as an intraduodenal bolus (0.2 ml volume). Angiotensin II injections were then given 5, 10, 20, 30, 45, 60, 75, 90, and 120 minutes after administration of the test compound and response of arterial pressure was monitored. The response to AII was calculated as percent of the control response and then the percent inhibition was calculated as 100 minus the percent control response. Duration of action of a test compound was defined as the time from peak percent inhibition to 50% of peak. The test compound was tested in two rats and the values for the two rats were averaged.
# [1] = tested on: response to angiotensin II (urinary sodium excretion); assay: Assay E: Urinary Sodium Excretion, acute administration with AII infusion; assay type: in vivo, male Sprague-Dawley rats, conscious; settings: for Urinary Sodium Excretion: means±SE
# Description: (§1) antagonist compound (Ex. #5) and a glutamyl conjugate (Ex. #81) of the Ex. #5 AII antagonist compound to determine the renal selectivity of the conjugate. Male Sprague-Dawley rats (300-350 g body weight) had catheters implanted into the femoral artery and vein under chloral hydrate anesthesia (400 mg/kg, i.p.). After 2 to 4 days of recovery, on the experimental day, a urinary bladder catheter was implanted under methohexital anesthesia (50 mg/kg, i.p.). Rats were placed in a restraint device to allow for urine collection and mean arterial pressure measurements. After 1-2 hours of recovery, in conscious rats, an isotonic saline infusion (50 μl/min) was started and continued for the duration of the experiment. After one hour equilibration to the saline infusion, a 20 minute control urine and mean arterial pressure collection were obtained. Then angiotensin II was infused at 20 ng/min for 25 minutes. After 5 minutes of angiotensin II infusion, a 20 minute experimental collection was made. Finally, 5 minutes after the end of angiotensin II infusion, a 20 minute recovery collection was obtained. In separate groups of rats, vehicle (0.3 ml isotonic saline, i.v. bolus), Example #5 angiotensin II antagonist compound (100 mg/kg, i.v. bolus), or Example #81 conjugate (100 mg/kg, i.v. bolus) was administered 1-2 minutes prior to onset of angiotensin II infusion. […] Results are shown in Tables XIII and XIV and also in FIGS. 3 and 4. Data are presented as means±SE. Repeated measures analysis of variance was used for main effects and interactions and Tukey's HSD test was used for pairwise comparisons among means. Statistical significance was defined as p<0.05.
# [2] = tested on: response to angiotensin II (mean arterial pressure); assay: Assay E: Mean Arterial Pressure, acute administration with AII infusion; assay type: in vivo, male Sprague-Dawley rats, conscious; settings: for Mean Arterial Pressure: n = 6, means±SE
# Description: as §1
# [3] = 100 mg/kg i.v. bolus, Recovery after AII infusion
# [4] = 100 mg/kg i.v. bolus, during AII infusion 20 ng/min, * in table
# [5] = 100 mg/kg, i.v. bolus, AII 20 ng/min
structure (smiles),measurement,setting,value
CCCCc1nc(Cl)c(CO)n1Cc1ccc(-c2ccccc2C(=O)O)cc1 [Example 5],% Control of AII Pressor Response,"AII receptor; 1 mg/kg i.v., 1 min",80%
same,% Control of AII Pressor Response,"AII receptor; 1 mg/kg i.v., 5 min",85%
same,% Control of AII Pressor Response,"AII receptor; 1 mg/kg i.v., 10 min",92%
same,% Control of AII Pressor Response,"AII receptor; 1 mg/kg i.v., 20 min",90%
same,% Control of AII Pressor Response,"AII receptor; 1 mg/kg i.v., 30 min",88%
same,% Control of AII Pressor Response,"AII receptor; 1 mg/kg i.v., 40 min",86%
same,% Control of AII Pressor Response,"AII receptor; 1 mg/kg i.v., 50 min",86%
same,% Control of AII Pressor Response,"AII receptor; 1 mg/kg i.v., 60 min",89%
same,% Control of AII Pressor Response,"AII receptor; 1 mg/kg i.v., 75 min",93%
same,% Control of AII Pressor Response,"AII receptor; 1 mg/kg i.v., 90 min",95%
same,% Control of AII Pressor Response,"AII receptor; 1 mg/kg i.v., 120 min",100%
same,% Control of AII Pressor Response,"AII receptor; 3 mg/kg i.v., 1 min",39%
same,% Control of AII Pressor Response,"AII receptor; 3 mg/kg i.v., 5 min",55%
same,% Control of AII Pressor Response,"AII receptor; 3 mg/kg i.v., 10 min",63%
same,% Control of AII Pressor Response,"AII receptor; 3 mg/kg i.v., 20 min",68%
same,% Control of AII Pressor Response,"AII receptor; 3 mg/kg i.v., 30 min",74%
same,% Control of AII Pressor Response,"AII receptor; 3 mg/kg i.v., 40 min",75%
same,% Control of AII Pressor Response,"AII receptor; 3 mg/kg i.v., 50 min",75%
same,% Control of AII Pressor Response,"AII receptor; 3 mg/kg i.v., 60 min",81%
same,% Control of AII Pressor Response,"AII receptor; 3 mg/kg i.v., 75 min",88%
same,% Control of AII Pressor Response,"AII receptor; 3 mg/kg i.v., 90 min",92%
same,% Control of AII Pressor Response,"AII receptor; 3 mg/kg i.v., 120 min",98%
same,% Control of AII Pressor Response,"AII receptor; 10 mg/kg i.v., 1 min",4%
same,% Control of AII Pressor Response,"AII receptor; 10 mg/kg i.v., 5 min",16%
same,% Control of AII Pressor Response,"AII receptor; 10 mg/kg i.v., 10 min",23%
same,% Control of AII Pressor Response,"AII receptor; 10 mg/kg i.v., 20 min",31%
same,% Control of AII Pressor Response,"AII receptor; 10 mg/kg i.v., 30 min",40%
same,% Control of AII Pressor Response,"AII receptor; 10 mg/kg i.v., 40 min",47%
same,% Control of AII Pressor Response,"AII receptor; 10 mg/kg i.v., 50 min",51%
same,% Control of AII Pressor Response,"AII receptor; 10 mg/kg i.v., 60 min",60%
same,% Control of AII Pressor Response,"AII receptor; 10 mg/kg i.v., 75 min",71%
same,% Control of AII Pressor Response,"AII receptor; 10 mg/kg i.v., 90 min",80%
same,% Control of AII Pressor Response,"AII receptor; 10 mg/kg i.v., 120 min",96%
same,Urinary Sodium Excretion,[1]; [3],2.6 ± 0.7 μEq/min/100 g BW
same,Urinary Sodium Excretion,[1]; [4],2.5 ± 1.1 μEq/min/100 g BW
same,antinatriuretic (urinary sodium excretion) response to angiotensin II,[1]; [5],prevented both responses to angiotensin II
same,Urinary Sodium Excretion,[1]; Control period (before dosing),2.4 ± 0.5 μEq/min/100 g BW
same,Mean Arterial Pressure,[2]; [3],124 ± 7 mm Hg
same,Mean Arterial Pressure,[2]; [4],125 ± 7 mm Hg
same,mean arterial pressure response to angiotensin II,[2]; [5],prevented both responses to angiotensin II
same,Mean Arterial Pressure,[2]; Control period (before dosing),123 ± 5 mm Hg
